Measured values taken from patent publication US20040121316A1 (priority 2002, published 2004).
Like-named read-outs stand apart in the source and are kept apart here.

Columns and labels:
[1] = tested on: wild-type HIV-1 strain IIIB; assay: microbe, parasite or virus in culture; format: cell-based; set-up: scale not given here
[2] = target: T1, recombinant HIV-1 protease (Human immunodeficiency virus type 1 group M subtype B, UniProt P04585); assay: biochemical
T1 construct: Enzyme: recombinant HIV-1 protease expressed in E.Coli; purchased Bachem California, Inc. H-9040; host or cells: E. coli

[3] = tested on: mutant HIV-1 I84V/L90M; assay: Resistance Evaluation, I84V/L90M fold change; format: cell-based; set-up: scale not given here
[4] = Human immunodeficiency virus 1, IIIB
[5] = EC50 of mutant I84V/L90M relative to wild type, class symbols

SMILES: CCOC(=O)C(C)NP(=O)(COc1ccc(CC(NC(=O)OC2COC3OCCC23)C(O)CN(CC(C)C)S(=O)(=O)c2ccc(OC)cc2)cc1)Oc1ccccc1 (stereo not drawn) [Example 30b]
- EC50 [1, 4]: < 50 nM
- Ki ([2]; Ki, class symbols, Table 10): < 0.01 nM

SMILES: CCOC(=O)C(C)NP(=O)(COc1ccc(CC(NC(=O)OC2COC3OCCC23)C(O)CN(CC(C)C)S(=O)(=O)c2ccc(OC)cc2)cc1)OCc1ccccc1 (stereo not drawn) [Example 30e]
- I84V/L90M fold change [3, 5]: − (≦3)
- EC50 [1, 4]: < 50 nM

SMILES: CCOC(=O)C(C)OP(=O)(COc1ccc(CC(NC(=O)OC2COC3OCCC23)C(O)CN(CC(C)C)S(=O)(=O)c2ccc(OC)cc2)cc1)Oc1ccccc1 (stereo not drawn) [Example 31e]
- EC50 [1, 4]: < 50 nM
- Ki ([2]; Ki, class symbols, Table 10): < 0.01 nM

SMILES: CCOP(=O)(COc1ccc(S(=O)(=O)N(CC(C)C)CC(O)C(Cc2ccc(N)cc2)NC(=O)OC2COC3OCCC23)cc1)OCC (stereo not drawn) [NH2, OEt]
- I84V/L90M fold change ([3]; mutant I84V/L90M vs wild type): ++ (>10 to ≦30)
- EC50 ([1]; read-out: EC50): 50 to 500 nM

SMILES: CCOP(=O)(COc1ccc(S(=O)(=O)N(CC(C)C)CC(O)C(Cc2ccc(N(C)C)cc2)NC(=O)OC2COC3OCCC23)cc1)OCC (stereo not drawn) [NMe2, OEt]
- I84V/L90M fold change ([3]; mutant I84V/L90M vs wild type): ++ (>10 to ≦30)
- EC50 ([1]; read-out: EC50): < 50 nM

SMILES: CC(C)CN(CC(O)C(Cc1ccc(O)cc1)NC(=O)OC1COC2OCCC12)S(=O)(=O)c1cccc(N)c1 (stereo not drawn) [OH, m-NH2]
- I84V/L90M fold change ([3]; mutant I84V/L90M vs wild type): − (≦3)
- EC50 (nM) [1]: + +

SMILES: CC(C)CN(CC(O)C(Cc1ccc(O)cc1)NC(=O)OC1COC2OCCC12)S(=O)(=O)c1ccc(N)cc1 (stereo not drawn) [OH, p-NH2]
- I84V/L90M fold change ([3]; mutant I84V/L90M vs wild type): − (≦3)
- EC50 (nM) [1]: + +

SMILES: COc1ccc(S(=O)(=O)N(CC(C)C)C[C@@H](O)[C@H](Cc2ccc(OCP(=O)(OCc3ccccc3)OCc3ccccc3)cc2)NC(=O)OC2CCOC2)cc1 (stereo partly drawn) [OMe, OBn]
- I84V/L90M fold change ([3]; mutant I84V/L90M vs wild type): + +
- EC50 (nM) [1]: + + +

SMILES: COc1ccc(S(=O)(=O)N(CC(C)C)C[C@@H](O)[C@H](Cc2ccc(OCP(=O)(O)O)cc2)NC(=O)OC2CCOC2)cc1 (stereo partly drawn) [OMe, OH]
- I84V/L90M fold change ([3]; mutant I84V/L90M vs wild type): + + +
- EC50 ([1]; read-out: EC50): > 5000 nM

SMILES: CC(C)CN(C[C@@H](O)[C@H](Cc1ccccc1)NC(=O)O[C@H]1CO[C@H]2OCC[C@H]21)S(=O)(=O)c1ccc(OCP(=O)(Oc2ccccc2)O[C@@H](C)C(=O)OC(C)C)cc1 (stereo partly drawn) [OPh, Lac-iPr]
- EC50 ([1]; read-out: EC50): 500 to 5000 nM
- Ki ([2]; read-out: Ki): 0.1 to 1 nM

SMILES: CCCCOC(=O)C(CC)NP(=O)(COc1ccc(CC(NC(=O)OC2COC3OCCC23)C(O)CN(CC(C)C)S(=O)(=O)c2ccc(OC)cc2)cc1)NC(CC)C(=O)OCCCC (stereo not drawn) [drawing 612 R1=Aba-Bu R2=Aba-Bu]
- I84V/L90M fold change [3, 5]: + (>3 to ≦10)
- EC50 [1, 4]: < 50 nM

SMILES: CCCCOC(=O)C(CC(C)C)NP(=O)(COc1ccc(CC(NC(=O)OC2COC3OCCC23)C(O)CN(CC(C)C)S(=O)(=O)c2ccc(OC)cc2)cc1)NC(CC(C)C)C(=O)OCCCC (stereo not drawn) [drawing 612 R1=Leu-Bu R2=Leu-Bu]
- I84V/L90M fold change [3, 5]: + (>3 to ≦10)
- EC50 [1, 4]: 50 to 500 nM

SMILES: CCNP(=O)(COc1ccc(CC(NC(=O)OC2COC3OCCC23)C(O)CN(CC(C)C)S(=O)(=O)c2ccc(OC)cc2)cc1)NCC (stereo not drawn) [drawing 612 R1=NHEt R2=NHEt]
- I84V/L90M fold change [3, 5]: − (≦3)
- EC50 [1, 4]: 50 to 500 nM

SMILES: CCOC(=O)C(NP(=O)(COc1ccc(CC(NC(=O)OC2COC3OCCC23)C(O)CN(CC(C)C)S(=O)(=O)c2ccc(OC)cc2)cc1)NC(C(=O)OCC)C(C)C)C(C)C (stereo not drawn) [drawing 612 R1=Val-Et R2=Val-Et]
- I84V/L90M fold change [3, 5]: − (≦3)
- EC50 [1, 4]: < 50 nM

SMILES: CCOC(=O)C(C)OP(=O)(COc1ccc(CC(NC(=O)OC2COC3OCCC23)C(O)CN(CC(C)C)S(=O)(=O)c2ccc(OC)cc2)cc1)OC(C)C(=O)OCC (stereo not drawn) [drawing 613 R1=Lac-Et R2=Lac-Et]
- I84V/L90M fold change [3, 5]: − (≦3)
- EC50 [1, 4]: 50 to 500 nM

SMILES: COc1ccc(S(=O)(=O)N(CC(C)C)CC(O)C(Cc2ccc(OCP(=O)(OC(C)C(=O)OC(C)C)OC(C)C(=O)OC(C)C)cc2)NC(=O)OC2COC3OCCC23)cc1 (stereo not drawn) [drawing 613 R1=Lac-iPr R2=Lac-iPr]
- I84V/L90M fold change [3, 5]: − (≦3)
- EC50 [1, 4]: < 50 nM

SMILES: COc1ccc(S(=O)(=O)N(CC(C)C)CC(O)C(Cc2ccc(OCP(=O)(O)OC(C)C(=O)O)cc2)NC(=O)OC2COC3OCCC23)cc1 [drawing 615 R1=OH R2=(R)Lac-OH]
- I84V/L90M fold change [3, 5]: − (≦3)

SMILES: COc1ccc(S(=O)(=O)N(CC(C)C)CC(O)C(Cc2ccc(OCP(=O)(O)OC(C)C(=O)O)cc2)NC(=O)OC2COC3OCCC23)cc1 (stereo not drawn) [drawing 615 R1=OH R2=Lac-OH]
- I84V/L90M fold change [3, 5]: − (≦3)
- EC50 [1, 4]: 500 to 5000 nM

SMILES: CCOP(=O)(CON=Cc1ccc(CC(NC(=O)OC2COC3OCCC23)C(O)CN(CC(C)C)S(=O)(=O)c2ccc(OC)cc2)cc1)OCC (stereo not drawn) [drawing 621 R1=Et R2=Et]
- I84V/L90M fold change [3, 5]: − (≦3)
- EC50 [1]: + + +

SMILES: COc1ccc(S(=O)(=O)N(CC(C)C)CC(O)C(CC2=CCN(CCP(=O)(OCc3ccccc3)OCc3ccccc3)CC2)NC(=O)OC2COC3OCCC23)cc1 (stereo not drawn) [drawing 630]
- I84V/L90M fold change [3, 5]: + (>3 to ≦10)

SMILES: COc1ccc(S(=O)(=O)N(CC(C)C)CC(O)C(Cc2ccc(NCP(=O)(NC(C)C(=O)OC(C)C)Oc3ccccc3)cc2)NC(=O)OC2COC3OCCC23)cc1 (stereo not drawn) [drawing 660]
- Ki ([2]; class symbols, Table 10): + +

SMILES: COc1ccc(S(=O)(=O)N(CC(C)C)CC(O)C(Cc2ccc(NCP(=O)(NC(C)C(=O)OC(C)C)Oc3ccccc3)cc2)NC(=O)OC2COC3OCCC23)cc1 (stereo not drawn) [drawing 661]
- Ki ([2]; class symbols, Table 10): + +

SMILES: COc1ccc(S(=O)(=O)N(CC(C)C)CC(O)C(Cc2ccc(NCP(=O)(NC(C)C(=O)OC(C)C)Oc3ccccc3)cc2)NC(=O)OC2COC3OCCC23)cc1 (stereo not drawn) [drawing 662]
- Ki ([2]; class symbols, Table 10): + + +

SMILES: CCCCOC(=O)C(C)OP(=O)(COc1ccc(CC(NC(=O)OC2COC3OCCC23)C(O)CN(CC(C)C)S(=O)(=O)c2cccc(N)c2)cc1)Oc1ccccc1 (stereo not drawn) [drawing 720]
- Ki (pM) [2]: + +
